Patent publication EP0346929B1, “Treating agent for Raynaud's disease” (DAIICHI PHARMACEUTICAL CO., LTD., priority 1988, dated 1989)
Where a name gives a salt, the structure may show the parent alone.

System: Laurate-Induced Peripheral Arterial Occlusive Diseases in Rats
Assay: Effect on progression of laurate-induced peripheral arterial occlusive diseases in rats
Format: in vivo
Description: Effect on Progression of Laurate-Induced Peripheral Arterial Occlusive Diseases in Rats
Male Wister-Imamichi rats weighing from 370 to 422 g (purchased from Dobutsu Hanshoku Kenkyukai) were used as test animals.
Rats were anesthetized with pentobarbital (50 mg/kg, i.p.), and the right femoral artery was exposed by surgical incision. 0.1 mℓ of a sodium laurate solution (1 mg of lauric acid/mℓ-saline, pH=8.0) was injected to the right femoral artery, haemostasis was secured by application of a surgical binding "Alonalpha" (a trade name, produced by Toa Gosei Kagaku Co.) to the punctured site of the artery, and the incision was closed with the surgical binding. The animals were then fed ad lib.
The degree of the lesions was graded to 0 - IV, 4 days after the operation for gangrene and 6 days after the operation for mummification or falling off as follows: normal apperance, 0; the affected region was limited to the nail parts, I; to the fingers, II; to the whole paw, III; and extended to the lower leg, IV.
As a test compound, 6-(1-imidazolylmethyl)-5,6,7,8-tetrahydronaphthalene-2-carboxylic acid hydrochloride 1/2 hydrate (hereinafter referred to as Compound A) was dissolved in physiological saline and administered to the left femoral vein at a dose of 3 mg/5 mℓ/kg 5 minutes before the laurate injection to the femoral artery. The effect of the Compound A on suppression of the lesions were examined. The animals in control group were injected with 5 mℓ/kg of saline alone in place of the Compound A. The results obtained are shown in Table 1 below.

`O=C(O)c1ccc2c(c1)CCC(Cn1ccnc1)C2` (centres unmarked) [Compound A, 6-(1-imidazolylmethyl)-5,6,7,8-tetrahydronaphthalene-2-carboxylic acid hydrochloride 1/2 hydrate] was tested, and the “Number of Animals Suffering From: Gangrene After 4 Days, grade 0” value (grade 0 = normal apperance, 3 mg/5 mℓ/kg into left femoral vein 5 minutes before laurate injection, 4 days after operation) was 2, the “Number of Animals Suffering From: Mummification or Falling Off After 6 Days, grade 0” value (grade 0 = normal apperance, 3 mg/5 mℓ/kg into left femoral vein 5 minutes before laurate injection, 6 days after operation) was 2 and the “Number of Animals Suffering From: Gangrene After 4 Days, grade I” value (grade I = affected region limited to the nail parts, 3 mg/5 mℓ/kg into left femoral vein 5 minutes before laurate injection, 4 days after operation) was 3. For the same compound, the “Number of Animals Suffering From: Mummification or Falling Off After 6 Days, grade I” value (grade I = affected region limited to the nail parts, 3 mg/5 mℓ/kg into left femoral vein 5 minutes before laurate injection, 6 days after operation) was 1, the “Number of Animals Suffering From: Gangrene After 4 Days, grade II” value (grade II = affected region limited to the fingers, 3 mg/5 mℓ/kg into left femoral vein 5 minutes before laurate injection, 4 days after operation) was 2 and the “Number of Animals Suffering From: Mummification or Falling Off After 6 Days, grade II” value (grade II = affected region limited to the fingers, 3 mg/5 mℓ/kg into left femoral vein 5 minutes before laurate injection, 6 days after operation) was 3. For the same compound, the “Number of Animals Suffering From: Mummification or Falling Off After 6 Days, grade III” value (grade III = affected region limited to the whole paw, 3 mg/5 mℓ/kg into left femoral vein 5 minutes before laurate injection, 6 days after operation) was 1 and the grade of lesions (intravenous injection of 3 mg/kg, compared with control group) was “reduced the grade of lesions”.
